One assay has as its target T1, D2 receptors (Chlorocebus aethiops, UniProt P52702).
T1 construct: 3H-YM 09151-2 displacement
As to the kind of experiment: D2 receptor binding ([3H]YM 09151-2 displacement, COS cell pellets with recombinant receptor). Further details: species or system African Green monkey. As to conditions: 0.5 nM 3H-YM 09151-2; recombinant receptor in COS cells; nonspecific with 1 mM spiperone; text also says rat striatal homogenates. On the procedure: (§1) Pellets of COS cells containing recombinantly produced D2 or D3 receptors from African Green monkey were used for the assays. The sample is homogenized in 100 volumes (w/vol) of 0.05M Tris HCl buffer at 4° C. and pH 7.4. The sample is then centrifuged at 30,000×g and resuspended and rehomogenized. The sample is then centrifuged as described and the final tissue sample is frozen until use. The tissue is resuspended 1:20 (wt/vol) in 0.05M Tris HCl buffer containing 100 mM NaCl.
(§2) Incubations are carried out at 48° C. and contain 0.4 ml of tissue sample, 0.5 nM ^3 H-YM 09151-2 and the compound of interest in a total incubation of 1.0 ml. Nonspecific binding is defined as that binding found in the presence of […] spiperone; without further additions, nonspecific binding is less than 20% of total binding. The binding characteristics of representative compounds of the invention for D2 and D3 receptor subtypes are shown in Table 2 for rat striatal homogenates.

The target in the next assay is T2, D3 receptors (Chlorocebus aethiops, UniProt P52703).
T2 construct: expressed in transfected cells; host or cells: COS cells
As to the kind of experiment: D3 receptor binding ([3H]YM 09151-2 displacement, COS cell pellets with recombinant receptor). Further details: species or system African Green monkey. As to conditions: 0.5 nM 3H-YM 09151-2; recombinant receptor in COS cells; nonspecific with 1 mM spiperone; text also says rat striatal homogenates. On the procedure:
as §1, §2

Counter-ions that a name gives are not always drawn.

This passage reports Ki results from patent US5892041A, “Fused indolecarboxamides: dopamine receptor subtype specific ligands” (Neurogen Corporation, priority 1996, dated 1999).

The term Ki denotes a measure of affinity in units of concentration, obtained from inhibition or displacement.

T1 sequence (P52702 whole entry): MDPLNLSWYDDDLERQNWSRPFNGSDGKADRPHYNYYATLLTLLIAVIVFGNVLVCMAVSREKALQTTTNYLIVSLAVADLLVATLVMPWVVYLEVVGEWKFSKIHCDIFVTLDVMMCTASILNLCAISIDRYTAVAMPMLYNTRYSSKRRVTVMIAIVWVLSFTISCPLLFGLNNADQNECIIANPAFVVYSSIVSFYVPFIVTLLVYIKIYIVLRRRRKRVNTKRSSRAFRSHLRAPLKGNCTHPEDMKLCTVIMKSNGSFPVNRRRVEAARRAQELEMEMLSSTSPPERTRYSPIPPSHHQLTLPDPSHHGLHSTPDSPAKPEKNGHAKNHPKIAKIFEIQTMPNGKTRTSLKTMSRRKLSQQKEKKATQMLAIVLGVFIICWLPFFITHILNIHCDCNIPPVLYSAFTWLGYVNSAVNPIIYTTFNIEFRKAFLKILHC
T2 sequence (P52703 whole entry): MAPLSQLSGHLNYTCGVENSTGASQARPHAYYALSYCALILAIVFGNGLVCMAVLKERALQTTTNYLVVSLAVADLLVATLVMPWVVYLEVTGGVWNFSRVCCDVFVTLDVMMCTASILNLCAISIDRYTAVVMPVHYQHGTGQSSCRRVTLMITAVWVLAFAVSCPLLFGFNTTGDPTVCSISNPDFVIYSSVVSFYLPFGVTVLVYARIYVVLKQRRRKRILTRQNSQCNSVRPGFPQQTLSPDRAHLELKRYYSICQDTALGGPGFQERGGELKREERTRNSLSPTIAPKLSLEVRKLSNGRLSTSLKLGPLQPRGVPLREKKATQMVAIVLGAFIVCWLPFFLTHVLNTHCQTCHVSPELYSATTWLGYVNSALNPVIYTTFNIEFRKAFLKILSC

Take `O=C(NCCCCN1CCN(c2cccc(Cl)c2Cl)CC1)c1ccc2c(c1)[nH]c1ccccc12` [Compound 4, N-(1-{4-[4-(2,3-dichlorophenyl)piperazine-1-yl]}butyl)-9H-carbazole-2-carboxamide hydrochloride]: the values for the Ki on D2 receptors and on D3 receptors were 750 nM and 1 nM, respectively.
For `Cn1c2ccccc2c2cc(C(=O)NCCCCN3CCN(c4cccc(Cl)c4Cl)CC3)ccc21` [Compound 3, N-(1-{4-[4-(2,3-dichlorophenyl)piperazine-1-yl]}butyl)-9-methylcarbazole-3-carboxamide hydrochloride], the Ki is 540 nM at D2 receptors and 2 nM on D3 receptors.
For `O=C(NCCCCN1CCN(c2cccc(Cl)c2Cl)CC1)c1ccc2[nH]c3c(c2c1)CCCC3` [Compound 1, N-(1-{4-[4-(2,3-dichlorophenyl)piperazine-1-yl]}butyl)-1,2,3 4-tetrahydrocarbazole-6-carboxamide hydrochloride], the Ki on D2 receptors was determined as 250 nM; on D3 receptors it was 0.5 nM.
